The text below walks through data of article PMC8989696, “Characterization of furathiocarb metabolism in in-vitro human liver microsomes and recombinant cytochrome P450 enzymes” (Toxicology Reports, 2022).

Molecules are shown by their SMILES. Like-named read-outs stand apart in the source and are kept apart here.

The test system of data set [1] is CYP3A4. The note with it: cited from earlier work.
Another data set deals with CYP2D6. As to conditions: cited from earlier work.
The subject of a further data set is CYPs 1A1/2. The note with it: read-out: IC50, CYP 1A1/2; cited from earlier work.
For the next data set, the system named is 2B6. The note with it: read-out: IC50, CYP 2B6; cited from earlier work.
Data set [2] in a line: Furathiocarb biotransformation kinetics in individual human hepatic microsomes (10 donors). In kind it is in vitro ADME. As to conditions: for Variation between the highest and lowest formation rate / Metabolite formation rate (lowest to highest of 10 donors): at 300 µM furathiocarb; for Variation between the highest and lowest formation rate: 10 donors; for Metabolite formation rate (lowest to highest of 10 donors): individual human hepatic microsomes. The protocol:
The incubation mixture (ﬁnal volume of 200 µl of 0.1 M phosphate buffer) contained 50 and 100 µM furathiocarb, 0.15 mg pooled liver microsomal protein (n = 10), and 1 mM NADPH. The reaction was initiated by NADPH after a 2 min pre-incubation at + 37 °C and was incubated for 30 min at + 37 °C. The reaction stopped with ice-cold acetonitrile containing an internal standard.
Enzyme kinetic parameters of both the microsomal samples and rCYP enzymes were measured. The incubation mixture contained furathiocarb (2.5, 10, 25, 50, 150 and 300 µM). Incubation times were 20 and 30 min for microsomal samples and rCYPs, respectively. Otherwise incubation mixtures and methods were the same as in metabolite identification. The rate of sum of furathiocarb metabolite formation was linear at least up to 0.15 mg protein/ml and 30 min incubation time in the standard experimental conditions.
The standard incubation mixture contained 50 and 100 µM furathiocarb, 0.15 mg pooled liver microsomal protein (n = 10), and 1 mM NADPH in a ﬁnal volume of 200 µl of 0.1 M phosphate buffer (pH 7.4). Furathiocarb was prepared once a week in dimethylsulfoxide (DMSO; ﬁnal amount in the reaction medium 1.0%). After a 2-min incubation at +37 ◦C in a shaking incubator block, the reaction was started by adding NADPH. The mixture was incubated at +37 ◦C for 30 min and the reaction was stopped with 600 µl of ice-cold acetonitrile containing an internal standard. All incubations were carried out in triplicate.

Data set [3] concerns CYP3A4. Description: in vitro. As to conditions: ketoconazole 100 µM, pooled human hepatic microsomes. How it is done: Formation rates of metabolites were determined in the presence or absence of ketoconazole 100 µM.
Each point represents the mean ± S.D of three separate determinations.

Another data set deals with CYP2C9. As to conditions: read-out: IC50, CYP2C9; range given jointly for CYP2C9, 2C19 and CYP2D6; no reference given; cited from earlier work.
The test system of a further data set is 2C19. As to conditions: read-out: IC50, 2C19; range given jointly for CYP2C9, 2C19 and CYP2D6; no reference given; cited from earlier work.
For data set [4] the following is noted: 54; cited from earlier work.
Setting [5] is: read-out: IC50, CYP3A4 (MDZ-OH).

For the molecule `CCOP(=S)(OCC)Oc1nc(Cl)c(Cl)cc1Cl` [Chlorpyrifos], the IC50 is 4 µM in the data set with CYP3A4 [1] (read-out: IC50, CYP 3A4); 3.3 µM in the data set with CYP2D6 (read-out: IC50, CYP 2D6); 2.9 µM in the data set on CYPs 1A1/2; 2.5 µM in the data set on 2B6.

Consider `CNC(=O)Oc1cccc2c1OC(C)(C)C2=O` [3-ketocarbofuran], for which, in data set [2], the “Variation between the highest and lowest formation rate” value worked out at 54.4 fold; the “Metabolite formation rate (lowest to highest of 10 donors)” value (from here on “Metabolite formation rate”) is listed as 0.28–15.6 nmol/(mg protein min).

As to `CC1(C)Cc2cccc(O)c2O1` [7-phenolcarbofuran], in [2], the “Variation between the highest and lowest formation rate” value is 2 fold; the “Metabolite formation rate” value is listed as 4.5–8.3 nmol/(mg protein min).

On to `CNC(=O)Oc1cccc2c1OC(C)(C)C2O` (stereo not drawn) [3-hydroxycarbofuran], for which, in data set [2], the “Variation between the highest and lowest formation rate” value worked out at 10 fold; the “Metabolite formation rate” value is on record as 0.68 to 6.83 nmol/(mg protein min).

As for `CC1(C)Oc2c(O)cccc2C1O` (stereo not drawn) [3-hydroxy-7-phenolcarbofuran], in data set [2], the “Variation between the highest and lowest formation rate” value stood at 23 fold; the “Metabolite formation rate” value is reported as 0.02–0.52 nmol/(mg protein min).

Turning to `CCOC(=O)CCN(SN(C)C(=O)Oc1cccc2c1OC(C)(C)C2)C(C)C` [benfuracarb], the IC50 with CYP3A4 [1] (setting [5]) is 14.8 µM.

In general, inhibition refers to the percentage by which the read-out fell short of the control. High values mean a strong effect, low ones a weak effect. On to `CC(=O)N1CCN(c2ccc(OCC3COC(Cn4ccnc4)(c4ccc(Cl)cc4Cl)O3)cc2)CC1` (stereo not drawn) [Ketoconazole], for which the inhibition at 20 min, 100 µM in the data set on CYP3A4 [3] (human, microsomes, Inhibition of carbofuran metabolic pathway formation, various furathiocarb concentrations) was in the range of 32 to 86%. In addition, the “Effect on the formation of metabolite A” value with CYP3A4 [3] is reported as “no effects”.

For the molecule `CCCCN(CCCC)SN(C)C(=O)Oc1cccc2c1OC(C)(C)C2` [Carbosulfan], the IC50 with CYP3A4 [1] (setting [5]) is 11.2 µM; in the data set on CYP2C9 it was 16 to 25 µM; in the data set with 2C19, 16 to 25 µM; in the data set with CYP2D6 (read-out: IC50, CYP2D6, range given jointly for CYP2C9, 2C19 and CYP2D6, no reference given), 16 to 25 µM.

Turning to `CNC(=O)Oc1cccc2c1OC(C)(C)C2` [Carbofuran, carbofuran], the “Toxic class, WHO classification of pesticides by hazard” value in data set [4] was 1b.

`CC1(C)Oc2c(O)cccc2C1=O` [3-keto-7-phenolcarbofuran]: the “Metabolite amounts formed in HLM31” value in data set [2] (HLM31, all furathiocarb concentrations used) is “below the limits of quantiﬁcation”.
